Measurements: ChEMBL document CHEMBL4311959, “Discovery of a potent p38α/MAPK14 kinase inhibitor: Synthesis, in vitro/in vivo biological evaluation, and docking studies” (Eur J Med Chem, 2019)
Each block holds one compound with its values, some of them ahead of it.

What was measured:
[1] = biological target: Serine/threonine-protein kinase B-raf (Homo sapiens) (UniProt P15056); assay: Inhibition of human BRAF at 10 uM using MEK1 (K97R) as substrate by [gamma-33P]-ATP assay relative to control
[2] = biological target: Platelet-derived growth factor receptor beta (Homo sapiens) (UniProt P09619); assay: Inhibition of human PDGFRbeta at 10 uM using poly[Glu:Tyr] (4:1) as substrate by [gamma-33P]-ATP assay relative to control
[3] = biological target: Mitogen-activated protein kinase 1 (Homo sapiens) (UniProt P28482); assay: Inhibition of human ERK2 at 10 uM using MBP as substrate by [gamma-33P]-ATP assay relative to control
[4] = biological target: T1, Mitogen-activated protein kinase 14 (Homo sapiens, UniProt Q16539); assay: Inhibition of human p38alpha at 10 uM using MBP as substrate by [gamma-33P]-ATP assay relative to control
T1 sequence (Q16539 whole entry): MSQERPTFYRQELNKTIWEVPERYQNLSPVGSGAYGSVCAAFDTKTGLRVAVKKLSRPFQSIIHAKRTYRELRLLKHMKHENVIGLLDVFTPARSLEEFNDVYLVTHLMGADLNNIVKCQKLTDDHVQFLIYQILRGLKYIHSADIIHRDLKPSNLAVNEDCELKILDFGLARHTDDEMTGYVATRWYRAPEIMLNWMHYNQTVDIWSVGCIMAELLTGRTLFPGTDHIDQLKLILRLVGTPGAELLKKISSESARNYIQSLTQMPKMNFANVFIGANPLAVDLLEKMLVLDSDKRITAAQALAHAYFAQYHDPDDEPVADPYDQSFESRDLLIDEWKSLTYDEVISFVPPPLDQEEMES

[5] = biological target: Hepatocyte growth factor receptor (Homo sapiens, UniProt P08581); assay: Inhibition of human c-MET at 10 uM using KKKSPGEYVNIEFG as substrate by [gamma-33P]-ATP assay relative to control
[6] = biological target: RAC-alpha serine/threonine-protein kinase (Homo sapiens) (UniProt P31749); assay: Inhibition of human AKT1 at 10 uM using KGSGSGRPRTSSFAEG as substrate by [gamma-33P]-ATP assay relative to control
[7] = biological target: Aurora kinase A (Homo sapiens) (UniProt O14965); assay: Inhibition of human Aurora A at 10 uM using [H-LRRASLG] as substrate by [gamma-33P]-ATP assay relative to control
Chain of Aurora kinase A (Homo sapiens) (O14965 whole entry): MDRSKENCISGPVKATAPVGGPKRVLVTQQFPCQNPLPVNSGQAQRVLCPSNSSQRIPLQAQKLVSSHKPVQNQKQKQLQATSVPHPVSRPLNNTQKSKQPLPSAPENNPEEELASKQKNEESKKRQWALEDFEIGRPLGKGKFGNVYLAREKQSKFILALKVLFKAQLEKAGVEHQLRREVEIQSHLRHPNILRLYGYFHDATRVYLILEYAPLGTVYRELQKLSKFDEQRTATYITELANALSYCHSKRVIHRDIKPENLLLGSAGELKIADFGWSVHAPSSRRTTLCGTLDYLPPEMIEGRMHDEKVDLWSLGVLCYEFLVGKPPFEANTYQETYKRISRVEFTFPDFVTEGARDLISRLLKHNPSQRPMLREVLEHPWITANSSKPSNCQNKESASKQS

[8] = biological target: T1, Mitogen-activated protein kinase 14; assay: Inhibition of recombinant Nanoluc-tagged p38alpha (unknown origin) expressed in HEK293 cells incubated for 2 to 3 mins by NanoBRET assay; format: cell-based
[9] = biological target: Serine/threonine-protein kinase A-Raf (Homo sapiens) (UniProt P10398); assay: Inhibition of human ARAF at 10 uM using MEK1 as substrate by [gamma-33P]-ATP assay relative to control
Chain of Serine/threonine-protein kinase A-Raf (Homo sapiens) (P10398 whole entry): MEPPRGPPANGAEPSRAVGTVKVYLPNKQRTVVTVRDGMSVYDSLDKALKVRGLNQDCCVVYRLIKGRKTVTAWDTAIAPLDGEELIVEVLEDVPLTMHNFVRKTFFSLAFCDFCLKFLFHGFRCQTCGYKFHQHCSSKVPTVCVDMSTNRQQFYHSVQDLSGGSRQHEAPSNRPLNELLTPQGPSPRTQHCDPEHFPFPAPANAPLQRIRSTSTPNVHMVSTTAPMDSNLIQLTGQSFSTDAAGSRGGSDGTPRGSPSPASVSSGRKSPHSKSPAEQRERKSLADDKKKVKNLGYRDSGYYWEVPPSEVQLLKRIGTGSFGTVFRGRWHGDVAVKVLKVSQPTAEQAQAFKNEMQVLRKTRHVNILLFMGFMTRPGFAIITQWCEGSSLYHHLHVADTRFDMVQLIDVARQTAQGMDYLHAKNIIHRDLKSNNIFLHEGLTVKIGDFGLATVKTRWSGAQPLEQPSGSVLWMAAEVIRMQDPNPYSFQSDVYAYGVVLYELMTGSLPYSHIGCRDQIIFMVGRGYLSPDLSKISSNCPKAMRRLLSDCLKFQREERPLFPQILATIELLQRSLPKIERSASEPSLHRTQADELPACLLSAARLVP

[10] = biological target: PI3-kinase p110-alpha/p85-alpha (Homo sapiens) (UniProt P27986+P42336); assay: Inhibition of human PI3K (p110alpha/p85alpha) at 10 uM using PI as substrate by ADP-Glo Assay relative to control; format: protein-complex assay
[11] = biological target: Dual specificity mitogen-activated protein kinase kinase 1 (Homo sapiens) (UniProt Q02750); assay: Inhibition of human MEK1 at 10 uM using ERK2 as substrate by [gamma-33P]-ATP assay relative to control
[12] = biological target: Receptor-type tyrosine-protein kinase FLT3 (Homo sapiens) (UniProt P36888); assay: Inhibition of human FLT3 at 10 uM using EAIYAAPFAKKK as substrate by [gamma-33P]-ATP assay relative to control
[13] = biological target: Mast/stem cell growth factor receptor Kit (Homo sapiens) (UniProt P10721); assay: Inhibition of human c-KIT at 10 uM using poly[Glu:Tyr] (4:1) as substrate by [gamma-33P]-ATP assay relative to control
[14] = biological target: Tyrosine-protein kinase JAK1 (Homo sapiens) (UniProt P23458); assay: Inhibition of human JAK1 at 10 uM using poly[Glu:Tyr] (4:1) as substrate by [gamma-33P]-ATP assay relative to control
Chain of Tyrosine-protein kinase JAK1 (Homo sapiens) (P23458 whole entry): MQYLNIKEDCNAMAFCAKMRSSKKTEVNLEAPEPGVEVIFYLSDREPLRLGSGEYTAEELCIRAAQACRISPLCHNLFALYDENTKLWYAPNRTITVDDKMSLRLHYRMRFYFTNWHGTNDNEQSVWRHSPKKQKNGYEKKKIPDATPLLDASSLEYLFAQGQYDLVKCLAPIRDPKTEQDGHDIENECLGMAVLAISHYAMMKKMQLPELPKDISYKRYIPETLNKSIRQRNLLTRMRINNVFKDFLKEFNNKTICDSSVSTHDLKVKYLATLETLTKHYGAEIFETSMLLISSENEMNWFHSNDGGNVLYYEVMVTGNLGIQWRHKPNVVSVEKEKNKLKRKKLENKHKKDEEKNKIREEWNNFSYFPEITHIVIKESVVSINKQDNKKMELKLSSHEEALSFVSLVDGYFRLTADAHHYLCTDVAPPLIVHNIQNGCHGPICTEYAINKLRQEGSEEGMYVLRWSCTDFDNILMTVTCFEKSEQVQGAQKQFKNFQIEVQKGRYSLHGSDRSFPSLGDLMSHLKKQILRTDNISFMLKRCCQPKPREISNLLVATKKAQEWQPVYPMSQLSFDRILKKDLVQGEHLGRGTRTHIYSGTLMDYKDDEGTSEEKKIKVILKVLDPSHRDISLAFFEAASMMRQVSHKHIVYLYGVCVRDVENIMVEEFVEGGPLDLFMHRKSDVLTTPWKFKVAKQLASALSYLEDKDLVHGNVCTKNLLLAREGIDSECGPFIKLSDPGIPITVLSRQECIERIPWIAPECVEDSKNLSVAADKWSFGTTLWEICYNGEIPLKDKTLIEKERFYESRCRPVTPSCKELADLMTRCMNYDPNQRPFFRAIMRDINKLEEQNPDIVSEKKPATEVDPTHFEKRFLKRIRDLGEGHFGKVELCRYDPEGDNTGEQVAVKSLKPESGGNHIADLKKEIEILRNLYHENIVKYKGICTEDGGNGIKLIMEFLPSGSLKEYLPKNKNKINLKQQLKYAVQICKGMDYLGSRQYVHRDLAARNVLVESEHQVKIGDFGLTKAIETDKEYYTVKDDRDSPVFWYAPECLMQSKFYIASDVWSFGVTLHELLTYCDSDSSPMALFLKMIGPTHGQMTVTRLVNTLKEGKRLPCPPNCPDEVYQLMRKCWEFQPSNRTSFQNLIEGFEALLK

[15] = biological target: ALK tyrosine kinase receptor (Homo sapiens) (UniProt Q9UM73); assay: Inhibition of human ALK at 10 uM using poly[Glu:Tyr] (4:1) as substrate by [gamma-33P]-ATP assay relative to control
[16] = biological target: Mitogen-activated protein kinase 8 (Homo sapiens) (UniProt P45983); assay: Inhibition of human JNK1 at 10 uM using ATF2 as substrate by [gamma-33P]-ATP assay relative to control
Chain of Mitogen-activated protein kinase 8 (Homo sapiens) (P45983 whole entry): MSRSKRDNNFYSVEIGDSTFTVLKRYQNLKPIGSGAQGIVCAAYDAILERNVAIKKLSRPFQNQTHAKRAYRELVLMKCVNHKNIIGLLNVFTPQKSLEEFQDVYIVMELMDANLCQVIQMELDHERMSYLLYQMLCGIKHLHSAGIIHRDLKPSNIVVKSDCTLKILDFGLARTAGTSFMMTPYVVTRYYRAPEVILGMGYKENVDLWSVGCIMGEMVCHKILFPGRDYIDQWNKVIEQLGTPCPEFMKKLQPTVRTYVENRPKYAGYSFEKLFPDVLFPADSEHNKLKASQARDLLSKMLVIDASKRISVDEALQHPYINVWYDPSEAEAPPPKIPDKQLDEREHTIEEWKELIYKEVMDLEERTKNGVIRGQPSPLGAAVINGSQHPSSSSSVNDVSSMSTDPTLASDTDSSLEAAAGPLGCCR

[17] = biological target: Macrophage colony-stimulating factor 1 receptor (Homo sapiens) (UniProt P07333); assay: Inhibition of human FMS at 10 uM using poly[Glu:Tyr] (4:1) as substrate by [gamma-33P]-ATP assay relative to control
[18] = biological target: Fibroblast growth factor receptor 1 (Homo sapiens) (UniProt P11362); assay: Inhibition of human FGFR1 at 10 uM using KKKSPGEYVNIEFG as substrate by [gamma-33P]-ATP assay relative to control
[19] = biological target: T1, Mitogen-activated protein kinase 14; assay: Inhibition of human p38alpha using MBP as substrate by [gamma-33P]-ATP assay
[20] = biological target: Epidermal growth factor receptor (Homo sapiens) (UniProt P00533); assay: Inhibition of human EGFR at 10 uM using poly[Glu:Tyr] (4:1) as substrate by [gamma-33P]-ATP assay relative to control
[21] = biological target: RAF proto-oncogene serine/threonine-protein kinase (Homo sapiens, UniProt P04049); assay: Inhibition of human RAF1 at 10 uM using MEK1 (K97R) as substrate by [gamma-33P]-ATP assay relative to control
Chain of RAF proto-oncogene serine/threonine-protein kinase (P04049 whole entry): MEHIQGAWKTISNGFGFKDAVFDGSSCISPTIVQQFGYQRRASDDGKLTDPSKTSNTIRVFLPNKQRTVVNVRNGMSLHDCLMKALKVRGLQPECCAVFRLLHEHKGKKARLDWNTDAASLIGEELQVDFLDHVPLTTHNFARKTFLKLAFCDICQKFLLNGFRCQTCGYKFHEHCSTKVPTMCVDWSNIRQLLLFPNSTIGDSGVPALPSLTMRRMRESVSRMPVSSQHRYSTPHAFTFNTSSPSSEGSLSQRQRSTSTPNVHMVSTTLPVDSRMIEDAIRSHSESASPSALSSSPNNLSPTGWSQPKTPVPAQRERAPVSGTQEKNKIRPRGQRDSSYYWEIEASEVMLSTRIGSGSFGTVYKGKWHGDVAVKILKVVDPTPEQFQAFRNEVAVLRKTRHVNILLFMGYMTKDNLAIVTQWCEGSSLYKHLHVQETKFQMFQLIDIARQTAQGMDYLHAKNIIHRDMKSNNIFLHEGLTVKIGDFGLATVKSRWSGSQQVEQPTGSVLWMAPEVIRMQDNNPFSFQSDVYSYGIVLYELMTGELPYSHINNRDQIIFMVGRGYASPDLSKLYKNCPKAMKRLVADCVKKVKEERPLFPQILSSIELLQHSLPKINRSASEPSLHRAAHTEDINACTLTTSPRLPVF

[22] = biological target: DNA-dependent protein kinase catalytic subunit (Homo sapiens) (UniProt P78527); assay: Inhibition of human DNAPK at 10 uM using EPPLSQEAFADLWKK as substrate by […]-ATP assay relative to control
[23] = biological target: Receptor tyrosine-protein kinase erbB-2 (Homo sapiens) (UniProt P04626); assay: Inhibition of human ERBB2 at 10 uM using poly[Glu:Tyr] (4:1) as substrate by [gamma-33P]-ATP assay relative to control
Chain of Receptor tyrosine-protein kinase erbB-2 (Homo sapiens) (P04626 whole entry): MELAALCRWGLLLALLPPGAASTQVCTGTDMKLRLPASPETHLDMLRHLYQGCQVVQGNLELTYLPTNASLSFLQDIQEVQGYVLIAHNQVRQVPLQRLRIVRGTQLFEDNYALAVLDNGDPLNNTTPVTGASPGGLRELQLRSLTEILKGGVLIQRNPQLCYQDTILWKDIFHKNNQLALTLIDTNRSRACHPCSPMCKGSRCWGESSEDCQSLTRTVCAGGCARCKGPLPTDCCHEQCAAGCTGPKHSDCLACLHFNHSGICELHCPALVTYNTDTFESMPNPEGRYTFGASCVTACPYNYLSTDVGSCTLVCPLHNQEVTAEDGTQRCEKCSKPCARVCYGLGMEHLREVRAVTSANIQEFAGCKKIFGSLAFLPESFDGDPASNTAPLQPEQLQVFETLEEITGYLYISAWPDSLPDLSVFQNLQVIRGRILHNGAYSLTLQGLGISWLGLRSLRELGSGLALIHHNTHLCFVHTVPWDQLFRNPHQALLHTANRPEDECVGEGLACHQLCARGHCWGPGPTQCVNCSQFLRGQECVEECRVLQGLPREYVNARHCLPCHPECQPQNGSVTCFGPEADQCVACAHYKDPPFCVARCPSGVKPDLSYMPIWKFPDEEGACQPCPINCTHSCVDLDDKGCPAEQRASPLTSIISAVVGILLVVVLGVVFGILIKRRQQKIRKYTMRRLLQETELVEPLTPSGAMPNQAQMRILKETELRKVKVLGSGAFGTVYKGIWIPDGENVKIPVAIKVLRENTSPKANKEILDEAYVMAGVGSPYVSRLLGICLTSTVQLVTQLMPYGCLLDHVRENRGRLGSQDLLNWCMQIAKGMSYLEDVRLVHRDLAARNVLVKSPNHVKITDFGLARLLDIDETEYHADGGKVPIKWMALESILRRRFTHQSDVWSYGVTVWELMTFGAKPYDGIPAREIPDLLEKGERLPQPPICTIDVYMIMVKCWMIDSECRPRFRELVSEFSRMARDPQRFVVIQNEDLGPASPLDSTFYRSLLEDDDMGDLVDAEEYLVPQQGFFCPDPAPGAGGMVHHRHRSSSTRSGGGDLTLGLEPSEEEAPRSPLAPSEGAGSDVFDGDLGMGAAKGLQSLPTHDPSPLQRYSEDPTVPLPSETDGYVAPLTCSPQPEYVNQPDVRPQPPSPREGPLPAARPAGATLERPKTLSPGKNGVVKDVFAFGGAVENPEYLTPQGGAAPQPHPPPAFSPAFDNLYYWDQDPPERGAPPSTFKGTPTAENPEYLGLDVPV

[24] = test system: Serine/threonine-protein kinase B-raf (Homo sapiens), P15056 [V600E]; assay: Inhibition of human BRAF V600E mutant at 10 uM using MEK1 (K97R) as substrate by [gamma-33P]-ATP assay relative to control
[25] = biological target: Vascular endothelial growth factor receptor 2 (Homo sapiens) (UniProt P35968); assay: Inhibition of human KDR at 10 uM using poly[Glu:Tyr] (4:1) as substrate by [gamma-33P]-ATP assay relative to control
[26] = biological target: Tyrosine-protein kinase JAK2 (Homo sapiens) (UniProt O60674); assay: Inhibition of human JAK2 at 10 uM using poly[Glu:Tyr] (4:1) as substrate by [gamma-33P]-ATP assay relative to control
[27] = biological target: Receptor tyrosine-protein kinase erbB-4 (Homo sapiens) (UniProt Q15303); assay: Inhibition of human ERBB4 at 10 uM using poly[Glu:Tyr] (4:1) as substrate by [gamma-33P]-ATP assay relative to control
[28] = biological target: Tyrosine-protein kinase ABL1 (Homo sapiens) (UniProt P00519); assay: Inhibition of human ABL1 at 10 uM using EAIYAAPFAKKK as substrate by [gamma-33P]-ATP assay relative to control
[29] = Stability in human plasma assessed as remaining compound at 10 uM incubated for 120 mins by LC-MS analysis; format: ADME, cell-free; conditions: read-out: Stability
[30] = Stability in rat plasma assessed as remaining compound at 10 uM incubated for 120 mins by LC-MS analysis; format: ADME, cell-free; conditions: read-out: Stability
[31] = Stability in human plasma assessed as remaining compound at 10 uM incubated for 30 mins by LC-MS analysis; format: ADME, cell-free; conditions: read-out: Stability
[32] = Stability in rat plasma assessed as remaining compound at 10 uM incubated for 30 mins by LC-MS analysis; format: ADME, cell-free; conditions: read-out: Stability
[33] = biological target: T1, Mitogen-activated protein kinase 14; assay: Inhibition of p38alpha (unknown origin)
THP-1 = assay: Inhibition of LPS-induced TNFalpha production in human THP1 cells incubated for 1 hr followed by LPS stimulation and measured after 4 hrs by TR-FRET method; format: functional, cell-based
Rattus norvegicus = assay: Antiinflammatory activity in Sprague-Dawley rat assessed as inhibition of carrageenan-induced paw edema at 50 mg/kg, ip administered 1 hr before carrageenan stimulation and measured after 3 hrs relative to control; format: functional

inhibition [1]: 8.96%
inhibition [2]: -7.69%
inhibition [3]: -8.43%
inhibition [4]: 86.4%
inhibition [5]: 48.5%
inhibition [6]: 4.08%
inhibition [7]: -3.14%
EC50 [8]: 1.94 µM
inhibition [9]: 57%
inhibition [10]: 8.99%
inhibition [11]: -4.12%
inhibition [12]: -6.35%
inhibition [13]: 2.7%
inhibition [14]: 9%
inhibition [15]: -3.13%
inhibition [16]: 22.2%
inhibition [17]: 5.95%
inhibition [18]: 4.66%
IC50 [19]: 0.307 µM
inhibition [20]: 2.48%
inhibition [21]: 40.4%
inhibition [22]: 0.81%
inhibition [23]: 0.29%
inhibition [24]: 35.8%
inhibition [25]: 2.65%
inhibition [26]: -4.38%
inhibition [27]: 20.1%
inhibition [28]: -7.26%
SMILES: COc1ccc(-c2nn(-c3cccc(NC(=O)Nc4cc(C(F)(F)F)cc(C(F)(F)F)c4)c3)cc2-c2ccncc2)cc1Cl

IC50 [19]: > 30 µM
SMILES: O=C(Nc1ccccc1)Nc1cccc(-n2cc(-c3ccncc3)c(-c3ccc(O)c(Cl)c3)n2)c1

IC50 [19]: 8.54 µM
SMILES: COc1ccc(-c2nn(-c3cccc(NC(=O)Nc4ccc(Cl)c(C(F)(F)F)c4)c3)cc2-c2ccncc2)cc1Cl

IC50 [19]: 2.33 µM
SMILES: COc1ccc(-c2nn(-c3cccc(NC(=O)c4cc(C(F)(F)F)cc(C(F)(F)F)c4)c3)cc2-c2ccncc2)cc1Cl

IC50 [19]: 14.4 µM
SMILES: O=C(Nc1cccc(-n2cc(-c3ccncc3)c(-c3ccc(O)c(Cl)c3)n2)c1)Nc1ccc(Cl)c(Cl)c1

IC50 [19]: 4 µM
SMILES: COc1ccc(-c2nn(-c3cccc(NC(=O)Nc4ccccc4)c3)cc2-c2ccncc2)cc1Cl

IC50 [19]: 6.07 µM
SMILES: COc1ccc(-c2nn(-c3cccc(NC(=O)c4ccc(N5CCOCC5)c(C(F)(F)F)c4)c3)cc2-c2ccncc2)cc1Cl

IC50 [19]: > 30 µM
SMILES: O=C(Nc1cccc(-n2cc(-c3ccncc3)c(-c3ccc(O)c(Cl)c3)n2)c1)c1ccc(N2CCOCC2)c(C(F)(F)F)c1

IC50 [19]: > 30 µM
SMILES: O=C(Nc1cccc(-n2cc(-c3ccncc3)c(-c3ccc(O)c(Cl)c3)n2)c1)c1cc(C(F)(F)F)cc(C(F)(F)F)c1

IC50 [19]: > 30 µM
SMILES: O=C(Nc1cccc(-n2cc(-c3ccncc3)c(-c3ccc(O)c(Cl)c3)n2)c1)Nc1ccc(Cl)c(C(F)(F)F)c1

remaining at 2 h, 10 µM [29]: 89.3%
remaining at 2 h, 10 µM [30]: 45.4%
remaining at 0.5 h, 10 µM [31]: 91.5%
remaining at 0.5 h, 10 µM [32]: 86.3%
SMILES: COc1ccc([C@@H]2Sc3ccccc3N(CCN(C)C)C(=O)[C@@H]2OC(C)=O)cc1 [DILTIAZEM]

IC50 [19]: 2.83 µM
SMILES: COc1ccc(-c2nn(-c3cccc(NC(=O)Nc4ccc(Cl)c(Cl)c4)c3)cc2-c2ccncc2)cc1Cl

IC50 [19]: > 30 µM
SMILES: O=C(Nc1cccc(-n2cc(-c3ccncc3)c(-c3ccc(O)c(Cl)c3)n2)c1)c1cccc(C(F)(F)F)c1

IC50 [19]: > 30 µM
SMILES: O=C(Nc1cccc(-n2cc(-c3ccncc3)c(-c3ccc(O)c(Cl)c3)n2)c1)Nc1cccc(C(F)(F)F)c1

IC50 [19]: 12.2 µM
SMILES: COc1ccc(-c2nn(-c3cccc(NC(=O)Nc4cccc(C(F)(F)F)c4)c3)cc2-c2ccncc2)cc1Cl

SMILES: CCN(CC)CCOC(=O)c1ccc(N)cc1 [PROCAINE]
remaining at 2 h, 10 µM [29]: 0.2%
remaining at 2 h, 10 µM [30]: 42.7%
remaining at 0.5 h, 10 µM [31]: 1.2%
remaining at 0.5 h, 10 µM [32]: 89.9%

IC50 [19]: 1.29 µM
SMILES: COc1ccc(-c2nn(-c3cccc(NC(=O)c4ccc(Cl)c(Cl)c4)c3)cc2-c2ccncc2)cc1Cl

IC50 [33]: 0.515 µM
SMILES: COc1cccc(-c2nn(-c3ccccc3)cc2-c2ccncc2)c1

IC50 [19]: 14.3 µM
SMILES: O=C(Nc1cccc(-n2cc(-c3ccncc3)c(-c3ccc(O)c(Cl)c3)n2)c1)c1ccc(Cl)c(Cl)c1

SMILES: C[S+]([O-])c1ccc(-c2nc(-c3ccc(F)cc3)c(-c3ccncc3)[nH]2)cc1 (stereo not given) [SB-203580]
IC50 (THP-1): 0.02 µM

IC50 [19]: > 30 µM
SMILES: O=C(Nc1cccc(-n2cc(-c3ccncc3)c(-c3ccc(O)c(Cl)c3)n2)c1)Nc1cc(C(F)(F)F)cc(C(F)(F)F)c1

SMILES: O=C(O)Cc1ccccc1Nc1c(Cl)cccc1Cl [DICLOFENAC]
inhibition in vivo at 50 mg/kg (Rattus norvegicus): 71.3%
